Entries after “also recorded” stand apart in the source; their conditions may differ. One block for each compound: values may come before it.
What was measured:
BiP NBD [1] = molecular target: T1, BiP NBD (Homo sapiens, UniProt P11021); test: Equilibrium 2D methyl-TROSY NMR fingerprint spectra with ligands (ATP analogs, calcium); assay type: binding; set-up: His6 (N, cleaved yes); made in house; host or cells: E. coli BL21-(DE3)-Lemo, pET28a vector; conditions: 2D methyl-TROSY compared with in-cyclo states
T1 sequence (P11021 19-406): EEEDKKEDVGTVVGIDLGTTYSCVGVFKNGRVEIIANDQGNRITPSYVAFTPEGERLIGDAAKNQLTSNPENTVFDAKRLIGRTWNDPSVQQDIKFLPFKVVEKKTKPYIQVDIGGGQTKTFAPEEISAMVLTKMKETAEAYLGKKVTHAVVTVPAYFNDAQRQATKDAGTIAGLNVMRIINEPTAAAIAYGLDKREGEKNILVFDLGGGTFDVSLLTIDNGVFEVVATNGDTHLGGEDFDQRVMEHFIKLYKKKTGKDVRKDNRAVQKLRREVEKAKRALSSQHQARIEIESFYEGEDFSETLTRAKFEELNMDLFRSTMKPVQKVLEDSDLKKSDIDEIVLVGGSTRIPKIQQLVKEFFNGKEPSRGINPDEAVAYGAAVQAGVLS
Method: First, we probed calcium binding to ADP-bound NBD by NMR equilibrium experiments. […] (Supplementary Fig. 15d). […] (Supplementary Fig. 16).
AMPPNP (adenylyl imidodiphosphate; Jena-bioscience), AMPPCP (adenylyl methylenediphosphate; Jena-bioscience) and ATP-γ-S (adenosine 5’-(gamma-thiotriphosphate; Jena-bioscience) were dissolved in the HKM reaction buffer (25 mM HEPES, pH 7.5, 150 mM KCl and 10 mM MgCl2) at a concentration of 50 mM directly before to be mixed with the BiP NBD sample. Samples were prepared fresh before each use to minimize the known instability of these analogs that undergo slow hydrolysis in solution.
Supplementary Figure 7. Analysis of the BiP NBD ATP-bound state. a, Combined methyl chemical shift differences between the APD·Pi-bound and the ATP-bound state of BiP NBD in-cyclo. The magnitude of 1 and 1.5 SDs are indicated by an orange and a red line, respectively. b, Overlay of 9 crystal structures of BiP NBD in presence of different nucleotides (colored sticks). c, Backbone root means square deviation (RMSD - Å) between the structures shown in (b) and the NBD apo state (PDB 3LDN). d, 2D [13C,1H]-TROSY spectrum of methyl-labeled BiP NBD in equilibrium with the ATP analogs AMPPNP (green), AMPPCP (orange) or ATP-γ-S (yellow), overlayed with the spectrum in-cyclo (pink).
State- and sequence-specific resonance assignments are indicated for the ADP-bound (light blue), ADP·Pi-bound (dark blue) and the ATP-bound (red) states in-cyclo.
(§1) (1 picture or pasted object on this page, not shown here)
Supplementary Figure 15. Mapping of calcium binding to BiP NBD. a, Selected details from published structures of BiP. From left to right: yeast BiP(NBD)-Mg2+-ADP (PDB 3QFU), human BiP(NBD)-Mg2+- ADP·Pi (PDB 5EVZ), human BiP(NBD)-Ca2+-ADP (PDB 6ZYH). b, Selected sections of 2D [13C,1H]-methyl-TROSY spectra of residue val50cg1 or Ile52cd1 for the equilibrium experiments of NBD apo (grey), NBD with 5 mM Pi (green), NBD with 1 mM ADP (light blue), NBD with 1 mM ADP·Pi (dark blue), NBD with 1 mM ADP-Ca2+ (dark-pink).and NBD with 3.3 mM calcium ([Mg2+]/[Ca2+]=3) (light-pink). c, Combined methyl chemical shift differences between the BiP NBD APD and the ADP-Ca2+-bound state. The magnitude of 1 and 1.5 SDs are indicated by a light blue and a dark blue line. d, Structure of NBD in […]
the ADP-Ca-bound state (PDB 6ZYH).

BiP NBD [2] = molecular target: T1, BiP NBD; test: NMR experiment with MABA-ATP (no E1, no E2) and kinetic fit of the MABA-ATP/MABA-ADP functional cycle; assay type: biochemical; set-up: His6 (N, cleaved yes); made in house; host or cells: E. coli BL21-(DE3)-Lemo, pET28a vector; conditions: for species: Supplementary Fig 13b
Method: […] After the equilibration time 2D [^13C,^1H]-HMQC spectra were recorded in interleaved mode with 1D ^1H NMR spectra. […] The same setup was used for the alternative experiments by including or excluding E1 and/or E2. When E1 was not included, the ratio of the ATP/ADP NMR signals was used to monitor their relative concentrations.
as §1

Hsp70 = system: Hsp70; set-up: method as in PMID 8226982; conditions: optimal range of concentration between 100 and 150 mM; cited from earlier work
BiP = conditions: NBD·MABA-ATP ⇌ NBD + MABA-ATP; cited from earlier work
[3] = MABA-ATP instead of ATP, reactions 1MABA, 2MABA, 3

Compound: Nc1ncnc2c1ncn2[C@@H]1O[C@H](CO[P@](=O)(O)O[P@](=O)(O)O[P@@](=O)(O)S)[C@@H](O)[C@H]1O [ATP-γ-S, adenosine 5’-(gamma-thiotriphosphate)]
NMR fingerprint of BiP NBD with the ligand (BiP NBD [1]): resemble the ADP·Pi-bound state rather than the ATP-bound state; also recorded: showed a peak splitting, indicating the formation of a heterogenous mix of conformations

Compound: Nc1ncnc2c1ncn2[C@@H]1O[C@H](COP(=O)(O)OP(=O)(O)NP(=O)(O)O)[C@@H](O)[C@H]1O [AMPPNP, adenylyl imidodiphosphate]
NMR fingerprint of BiP NBD with the ligand (BiP NBD [1]): resemble the ADP·Pi-bound state rather than the ATP-bound state

species (BiP NBD [2]; time 4 min): 350 µM | species (BiP NBD [2]; time 10 min): 508 µM | species (BiP NBD [2]; time 16 min): 626 µM | species (BiP NBD [2]; time 22 min): 712 µM | species (BiP NBD [2]; time 28 min): 800 µM | species (BiP NBD [2]; time 34 min): 840 µM | species (BiP NBD [2]; time 40 min): 889 µM | species (BiP NBD [2]; time 46 min): 907 µM | species (BiP NBD [2]; time 52 min): 929 µM | species (BiP NBD [2]; time 58 min): 924 µM | species (BiP NBD [2]; time 64 min): 932 µM
Compound: CNc1ccccc1C(=O)NCCCCNc1nc2c(N)ncnc2n1[C@@H]1O[C@H](COP(=O)(O)OP(=O)(O)O)[C@@H](O)[C@H]1O [MABAADP]

Compound: [K+] [potassium]
increase of the Hsp70 ATP hydrolysis activity (Hsp70): 5 fold

koff (BiP NBD [2]; [3]): 0.035 ± 0.008 s⁻¹ | kon (BiP NBD [2]; [3]): 37000 ± 6000 M⁻¹ s⁻¹ | Kd (BiP NBD [2]; MABA-ATP instead of ATP, reactions 1MABA, 2MABA, 3: release to apo NBD, T = 37°C): 950 ± 100 nM | kcat (BiP NBD [2]; NBD·MABA-ATP → NBD·MABA-ADP·Pi): 0.036 s⁻¹
Compound: CNc1ccccc1C(=O)NCCCCNc1nc2c(N)ncnc2n1[C@@H]1O[C@H](COP(=O)(O)OP(=O)(O)OP(=O)(O)O)[C@@H](O)[C@H]1O [MABA-ATP, 8-[(4-Amino)butyl]-amino-ATP-MAN]
Kd (BiP): 1000 nM | koff1 (MABA-ATP) (BiP): 0.031 s⁻¹ | kon (BiP): 32000 M⁻¹ s⁻¹

Compound: Nc1ncnc2c1ncn2[C@@H]1O[C@H](COP(=O)(O)OP(=O)(O)CP(=O)(O)O)[C@@H](O)[C@H]1O [AMPPCP, adenylyl methylenediphosphate]
NMR fingerprint of BiP NBD with the ligand (BiP NBD [1]): resemble the ADP·Pi-bound state rather than the ATP-bound state

Source: publication PMC12126525, “Mechanism of ATP hydrolysis in the Hsp70 BiP nucleotide-binding domain” (Nature Communications, 2025)
